Earlier results on one compound are cited in patent publication US20170140533A1, “SYSTEM AND METHOD FOR AUTOMATED DETECTION AND MONITORING OF DYSPLASIA AND ADMINISTRATION OF IMMUNOTHERAPY AND CHEMOTHERAPY” (VISIONGATE, INC., priority 2015, published 2017).

Molecules are shown by their SMILES.

For series [1], the system named is immune response in SSc patients.
The next series has as its system T cells. As to conditions: in vitro.

Regarding `CC#CCC(C)[C@H](O)/C=C/[C@@H]1[C@H]2C/C(=C/CCCC(=O)O)C[C@H]2C[C@H]1O` (stereo partly drawn) [Iloprost], in series [1] (SSc patients), the IFN gamma production result is recorded as “No effect” and the “T regulatory cells number” value was “reduces”. Besides, the “serum IL-2” value in series [1] (SSc patients, serum) is “increases”. The “T regulatory cells activity” value in series [1] (after immune stimulation) is “increases”. Further, the “persistence of serum IL-2 increase after the last infusion” value in series [1] (after the last infusion) is 28 days. In addition, the RANKL result in series [1] (in vivo) is reported as “increased”. Besides, in series [1] (in vivo, SSc patients), the “T cell and TNF alpha production” value was “reduces”. Also, in the series on T cells, the RANKL entry is reported as “increased”; the “T cell and TNF alpha production” value is reported as “reduces”.
